# Tests used:
# OBX mice = assay: Tail-suspension test and forced swim test in OBX mice (depression model); type: in vivo; conditions: chronic oral treatment for 2 weeks, 1 mg/kg
# Protocol: OBX mice were used as a depression model to determine the effect of TP-014 (chronic oral treatment for 2 weeks (1 mg/kg)) to ameliorate a depression-like symptom. OBX mice are reported to show a decline in cognitive function, but have originally been established as a depression model. Depression analysis was done by tail-suspension test and forced swim test. In the tail-suspension test, mice are hung upside-down by their tail. If the hung mice are affected by depression, they show a longer immobility time. The immobility time of normal mice is shorter since they move actively when hung. In the forced swim test, mice are forced to swim in a beaker filled with water. Depression mice neither swim nor move (just float). The time (immobility time(s)) for which mice stay still in such a way is measured.
# The same model mice were orally treated with a single dose of each of the test compounds (1 mg/kg), and analyzed after 1 hour by tail-suspension test and forced swim test. The results are shown in FIGS. 22-1 (tail-suspension test) and 22-2 (forced swim test).
# Kir6.1 channels = molecular target: T1, Kir6.1 channels (Mus musculus, UniProt P97794); assay: Patch-clamp assay of outward potassium current in Kir6.1 channel-overexpressing cells; type: cell-based; conditions: 10 nM
# T1 construct: The plasmid vector having inserted therein Kir6.1 channel cDNA: pcDNA3.1-Kir6.1; expressed in transfected cells; host or cells: Neuro2A (N2A) cells, mouse neuroblastoma
# T1 sequence (P97794 1-424): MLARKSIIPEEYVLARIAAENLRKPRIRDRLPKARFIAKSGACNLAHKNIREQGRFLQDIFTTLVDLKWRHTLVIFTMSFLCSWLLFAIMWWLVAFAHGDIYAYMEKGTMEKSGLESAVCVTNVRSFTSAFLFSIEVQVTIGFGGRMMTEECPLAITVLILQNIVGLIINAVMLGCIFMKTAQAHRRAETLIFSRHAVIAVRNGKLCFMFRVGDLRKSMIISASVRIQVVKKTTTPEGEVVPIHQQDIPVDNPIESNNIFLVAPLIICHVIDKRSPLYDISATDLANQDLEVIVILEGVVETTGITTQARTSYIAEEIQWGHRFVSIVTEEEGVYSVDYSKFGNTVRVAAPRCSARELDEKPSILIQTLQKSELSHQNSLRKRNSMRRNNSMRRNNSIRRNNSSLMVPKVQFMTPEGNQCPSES
# Source text: Further, the obtained Kir6.1 channel-overexpressing cells were used to measure potassium current discharged out of the cells by a conventional patch-clamp assay. ATP-sensitive potassium channels (Kir6.1 channels) are localized in the cell membranes of nerve cells. If the channels are inhibited and closed, the threshold of the nerve cell membranes rises to create a condition analogous to temporal generation of action potential, with the result that intracellular potassium current is discharged out of the cells and instead extracellular calcium current enters the cells. Immunoblotting of Kir6.1 channel-overexpressing cells (prepared by the aforementioned method) using an anti-Kir6.1 channel antibody (prepared by a conventional method) (n=5, under the same conditions as in Test Example 1, except for using the anti-Kir6.1 channel antibody) confirmed that Kir6.1 channels were overexpressed in N2A cells (FIG. 18-2; upper: immunoblot staining images; lower: quantitative representations of the signal intensity of staining bands).
# [1] = tested on: Wild-type mice (C57BL/6J) treated with corticosterone; assay: Anxiety-related behavioral tests in corticosterone-treated wild-type mice; type: in vivo; conditions: 1 mg/kg orally once a day for 2 weeks
# Protocol: Wild-type mice (C57BL/6J, Japan SLC, two month-old) treated with corticosterone (at a dose of 5 mg/kg once a day for 2 weeks) and Kir6.1-deficient mice treated with corticosterone were used as disease models showing anxiety-like symptoms, to perform five behavioral tests regarding anxiety-related behaviors. The Kir6.1-deficient mice were obtained from Professor Susumu Seino, School of Medicine of Kobe University (Miki T., et al., Nature Medicine 2002, 8, 466-472).
# The apparatus used in this test consists of four arms arranged in a cross shape at an elevated position, which are either open or closed. Mice vulnerable to anxiety stay in the closed arms for a longer time, whereas those resistant to anxiety stay in the open arms. In FIG. 19-1, the time spent in the open arms is shown on the vertical axis.
# Mice placed in a black box (dark place) feel anxious about light. The time spent until mice began to come out of the box (to a bright place) was measured. […]
# In a cage with a mouse, wood chips are spread over the cage floor and 20 marbles are placed thereon in a manner that is visible to the mouse. The mouse is allowed to freely explore for 30 minutes, and the number of marbles buried and hidden by the mouse in wood chips is counted. […]
# The test apparatus used in this test was the same as used in the light/dark test method. […] Such an immobility time of mice is measured. […]
smiles,measurement,setting,value
"O=C(N[C@@H](c1ccccc1)[C@H]1[C@H]2C[C@@H]3C[C@](Cl)(C2)C[C@@]1(OC(=O)C(F)(F)F)C3)C(F)(F)F [TP-014, (1S,2R,3S,5S,7S)-5-chloro-2-((R)-phenyl(2,2,2-trifluoroacetamido)methyl)adamantan-1-yl 2,2,2-trifluoroacetate]",immobility time (tail-suspension test and forced swim test),OBX mice,improved
same,outwardly flowing potassium current,Kir6.1 channels,suppressed
same,"exacerbated anxiety symptoms (elevated plus-maze, light/dark, marble burying, open field, fear conditioning tests)",[1],significant amelioration of exacerbated anxiety symptoms

# From patent US11608313B2, “Adamantylmethylamine derivative and use thereof as pharmaceutical” (TOHOKU UNIVERSITY, priority 2017, dated 2023)
